# Key:
# [1] = system: Saccharomyces ubran ATCC 9080; experiment: minimum growth inhibitory concentration (MIC) against Saccharomyces ubran ATCC 9080; type: cell-based; conditions: Table 3
# [2] = system: Candida albicans ATCC 10231; experiment: minimum growth inhibitory concentration (MIC) against Candida albicans ATCC 10231; type: cell-based
Structure (SMILES),MIC [1],MIC ([2]; Table 3),minimum growth inhibitory concentration (MIC) ([2]; Example 7)
"CC1/C=C/C=C/C=C/C=C/C=C/C=C/C=C/C(O[C@H]2O[C@@H](C)[C@H](O)[C@@H](N)[C@H]2O)CC2OC(O)(CC(O)CC(O)CC(O)CC(O)CC(=O)CC(O)CC(=O)OC1C(C)CCC(O)CC(=O)c1ccc(N)cc1)CC(O)C2C(=O)O (stereo partly drawn) [Partricin B, partricin B]",0.04 µg/mL,0.04 µg/mL,
COC(=O)C1C(O)CC2(O)CC(O)CC(O)CC(O)CC(O)CC(=O)CC(O)CC(=O)OC(C(C)CCC(O)CC(=O)c3ccc(N)cc3)C(C)/C=C/C=C/C=C/C=C/C=C/C=C/C=C/C(O[C@H]3O[C@@H](C)[C@H](O)[C@@H](N)[C@H]3O)CC1O2 (stereo partly drawn) [partricin B methyl ester],,,0.52 µg/mL
